Data as given in publication PMC10382584, “Macrocyclization of linear molecules by deep learning to facilitate macrocyclic drug candidates discovery” (Nature Communications, 2023).

How the values were obtained:
Assay in all cases: biochemical
Design in all cases: DiscoveRx KINOMEscan competition binding, percent of DMSO control signal at 100 nM
Conditions in all cases: read-out: Fig. 4a / Percent Control / Compound 1; percent of DMSO control, competition binding
FGFR1 = FGFR1 (Homo sapiens, UniProt P11362)
ANKK1 = ANKK1 (Homo sapiens, UniProt Q8NFD2)
CDKL2 = CDKL2 (Homo sapiens, UniProt Q92772)
DAPK3 = DAPK3 (Homo sapiens, UniProt O43293)
PIK3CA(E542K) = PIK3CA(E542K) (Homo sapiens, UniProt P42336, E542K)
ACVR2B = ACVR2B (Homo sapiens, UniProt Q13705)
MEK3 = target: T1, MEK3 (Homo sapiens, UniProt P46734)
T1 construct: gene MAP2K3

CSNK2A1 = CSNK2A1 (Homo sapiens, UniProt P68400)
EPHB4 = EPHB4 (Homo sapiens, UniProt P54760)
AURKA = AURKA (Homo sapiens, UniProt O14965)
NEK6 = NEK6 (Homo sapiens, UniProt Q9HC98)
INSRR = INSRR (Homo sapiens, UniProt P14616)
INSRR, sequence (P14616 whole entry): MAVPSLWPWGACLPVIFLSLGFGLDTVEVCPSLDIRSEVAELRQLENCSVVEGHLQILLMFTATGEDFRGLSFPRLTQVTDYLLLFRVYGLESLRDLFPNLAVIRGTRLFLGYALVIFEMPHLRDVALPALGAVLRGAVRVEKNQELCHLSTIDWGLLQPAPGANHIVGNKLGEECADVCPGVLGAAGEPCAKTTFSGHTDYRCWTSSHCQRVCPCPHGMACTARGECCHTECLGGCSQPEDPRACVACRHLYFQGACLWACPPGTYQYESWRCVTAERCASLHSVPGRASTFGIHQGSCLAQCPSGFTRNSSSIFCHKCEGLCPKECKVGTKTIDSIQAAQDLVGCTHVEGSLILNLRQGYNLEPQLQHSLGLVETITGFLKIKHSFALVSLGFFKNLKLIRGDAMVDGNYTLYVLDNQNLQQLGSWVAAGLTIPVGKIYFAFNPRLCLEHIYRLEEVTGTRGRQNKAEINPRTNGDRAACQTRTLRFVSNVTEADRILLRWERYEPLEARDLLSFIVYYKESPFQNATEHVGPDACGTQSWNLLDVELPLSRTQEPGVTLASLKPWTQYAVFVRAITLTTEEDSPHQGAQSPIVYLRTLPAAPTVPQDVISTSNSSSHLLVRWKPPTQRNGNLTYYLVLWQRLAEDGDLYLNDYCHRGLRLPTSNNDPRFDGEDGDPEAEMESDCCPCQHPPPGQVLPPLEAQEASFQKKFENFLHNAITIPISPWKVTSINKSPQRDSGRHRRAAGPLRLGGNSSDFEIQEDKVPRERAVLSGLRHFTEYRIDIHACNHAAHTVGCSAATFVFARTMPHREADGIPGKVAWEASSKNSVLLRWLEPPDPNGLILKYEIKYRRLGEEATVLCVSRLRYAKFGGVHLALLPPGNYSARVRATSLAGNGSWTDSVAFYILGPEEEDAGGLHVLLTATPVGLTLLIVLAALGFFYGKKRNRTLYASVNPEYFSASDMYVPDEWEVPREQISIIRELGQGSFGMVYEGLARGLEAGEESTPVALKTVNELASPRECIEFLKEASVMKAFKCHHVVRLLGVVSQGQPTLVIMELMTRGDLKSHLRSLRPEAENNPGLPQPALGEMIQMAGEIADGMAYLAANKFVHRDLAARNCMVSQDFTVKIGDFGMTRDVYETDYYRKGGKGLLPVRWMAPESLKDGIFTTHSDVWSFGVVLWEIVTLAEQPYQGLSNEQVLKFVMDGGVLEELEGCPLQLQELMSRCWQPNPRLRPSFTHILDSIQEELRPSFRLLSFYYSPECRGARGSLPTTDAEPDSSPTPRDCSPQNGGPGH

[1] = target: T2, RPS6KA4(Kin.Dom.2-C-terminal) (Homo sapiens, UniProt O75676)
T2 construct: Kin.Dom.2-C-terminal

MLK3 = target: T3, MLK3 (Homo sapiens, UniProt Q16584)
T3 construct: gene MAP3K11
T3 sequence (Q16584 whole entry): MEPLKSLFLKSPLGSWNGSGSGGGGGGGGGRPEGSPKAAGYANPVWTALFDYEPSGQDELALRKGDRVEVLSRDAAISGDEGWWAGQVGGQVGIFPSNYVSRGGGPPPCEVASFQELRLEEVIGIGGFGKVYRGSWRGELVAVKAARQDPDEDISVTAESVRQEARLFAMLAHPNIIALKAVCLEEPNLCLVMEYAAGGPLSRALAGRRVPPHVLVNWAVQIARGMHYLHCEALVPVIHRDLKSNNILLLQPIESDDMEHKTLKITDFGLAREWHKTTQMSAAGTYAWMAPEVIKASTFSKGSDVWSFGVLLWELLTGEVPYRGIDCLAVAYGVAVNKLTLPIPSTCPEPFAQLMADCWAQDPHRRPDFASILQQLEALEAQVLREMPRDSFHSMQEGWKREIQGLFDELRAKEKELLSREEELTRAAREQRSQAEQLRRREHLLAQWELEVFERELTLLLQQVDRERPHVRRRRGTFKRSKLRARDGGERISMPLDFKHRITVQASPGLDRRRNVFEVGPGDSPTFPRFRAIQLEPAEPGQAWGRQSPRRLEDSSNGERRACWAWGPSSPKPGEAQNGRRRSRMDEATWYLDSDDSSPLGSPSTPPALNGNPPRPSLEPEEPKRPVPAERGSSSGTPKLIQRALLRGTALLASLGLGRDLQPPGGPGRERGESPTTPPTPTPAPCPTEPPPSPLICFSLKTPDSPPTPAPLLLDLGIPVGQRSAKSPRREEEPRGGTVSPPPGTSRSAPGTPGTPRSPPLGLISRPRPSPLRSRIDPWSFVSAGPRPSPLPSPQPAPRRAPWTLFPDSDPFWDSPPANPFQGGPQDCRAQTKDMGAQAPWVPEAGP

CSNK1E = CSNK1E (Homo sapiens, UniProt P49674)
BRSK1 = BRSK1 (Homo sapiens, UniProt Q8TDC3)
BRSK1, sequence (Q8TDC3 whole entry): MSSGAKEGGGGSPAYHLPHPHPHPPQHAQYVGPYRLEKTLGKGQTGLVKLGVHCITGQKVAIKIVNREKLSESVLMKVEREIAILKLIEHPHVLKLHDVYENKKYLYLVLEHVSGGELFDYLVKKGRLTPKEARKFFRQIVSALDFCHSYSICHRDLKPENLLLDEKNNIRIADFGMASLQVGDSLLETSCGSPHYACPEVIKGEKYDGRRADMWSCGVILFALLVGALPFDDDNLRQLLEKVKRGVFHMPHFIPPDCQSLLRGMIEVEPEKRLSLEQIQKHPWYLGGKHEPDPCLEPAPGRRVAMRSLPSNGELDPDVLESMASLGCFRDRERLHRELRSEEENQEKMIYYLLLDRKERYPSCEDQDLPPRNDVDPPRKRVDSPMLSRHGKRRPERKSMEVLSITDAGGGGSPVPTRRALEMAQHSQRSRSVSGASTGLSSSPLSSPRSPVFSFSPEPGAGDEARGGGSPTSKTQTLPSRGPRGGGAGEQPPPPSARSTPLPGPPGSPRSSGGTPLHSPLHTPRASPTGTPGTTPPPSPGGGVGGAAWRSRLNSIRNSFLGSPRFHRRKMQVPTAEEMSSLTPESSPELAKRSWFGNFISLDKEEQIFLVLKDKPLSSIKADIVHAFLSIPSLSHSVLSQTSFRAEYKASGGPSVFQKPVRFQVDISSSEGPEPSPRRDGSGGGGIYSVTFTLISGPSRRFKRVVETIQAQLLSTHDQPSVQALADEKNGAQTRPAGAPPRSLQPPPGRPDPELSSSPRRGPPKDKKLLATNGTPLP

FLT3(K663Q) = FLT3(K663Q) (Homo sapiens, UniProt P36888, K663Q)
BTK = BTK (Homo sapiens, UniProt Q06187)
BRAF(V600E) = BRAF(V600E) (Homo sapiens, UniProt P15056, V600E)
PAK7 = target: T4, PAK7 (Homo sapiens, UniProt Q9P286)
T4 construct: gene PAK5

RIOK1 = RIOK1 (Homo sapiens, UniProt Q9BRS2)
PKN2 = PKN2 (Homo sapiens, UniProt Q16513)
PKN2, sequence (Q16513 whole entry): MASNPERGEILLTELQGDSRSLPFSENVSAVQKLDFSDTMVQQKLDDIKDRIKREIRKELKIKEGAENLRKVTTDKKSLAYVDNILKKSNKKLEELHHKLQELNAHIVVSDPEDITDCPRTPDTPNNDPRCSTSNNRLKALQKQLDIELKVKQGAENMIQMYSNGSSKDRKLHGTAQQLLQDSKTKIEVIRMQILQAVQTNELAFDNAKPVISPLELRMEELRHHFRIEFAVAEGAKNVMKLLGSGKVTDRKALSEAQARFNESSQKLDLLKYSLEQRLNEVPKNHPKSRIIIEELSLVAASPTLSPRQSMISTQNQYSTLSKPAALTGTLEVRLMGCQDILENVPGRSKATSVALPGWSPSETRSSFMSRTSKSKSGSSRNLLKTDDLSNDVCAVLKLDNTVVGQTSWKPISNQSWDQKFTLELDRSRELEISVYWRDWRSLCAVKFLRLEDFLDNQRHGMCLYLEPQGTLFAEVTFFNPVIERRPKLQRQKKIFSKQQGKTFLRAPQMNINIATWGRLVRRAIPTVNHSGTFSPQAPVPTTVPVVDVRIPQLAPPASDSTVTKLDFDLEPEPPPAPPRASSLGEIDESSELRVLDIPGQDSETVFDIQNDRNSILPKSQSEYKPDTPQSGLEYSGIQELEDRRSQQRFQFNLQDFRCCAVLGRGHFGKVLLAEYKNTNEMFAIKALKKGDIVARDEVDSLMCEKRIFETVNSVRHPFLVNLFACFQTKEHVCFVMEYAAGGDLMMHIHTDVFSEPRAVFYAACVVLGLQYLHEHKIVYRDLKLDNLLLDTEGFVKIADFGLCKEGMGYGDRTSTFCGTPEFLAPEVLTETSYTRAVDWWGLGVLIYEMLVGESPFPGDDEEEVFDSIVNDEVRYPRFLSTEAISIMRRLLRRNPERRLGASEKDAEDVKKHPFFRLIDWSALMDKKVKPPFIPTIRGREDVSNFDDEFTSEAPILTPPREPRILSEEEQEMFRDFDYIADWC

ACVR1 = ACVR1 (Homo sapiens, UniProt Q04771)
ACVR1, sequence (Q04771 whole entry): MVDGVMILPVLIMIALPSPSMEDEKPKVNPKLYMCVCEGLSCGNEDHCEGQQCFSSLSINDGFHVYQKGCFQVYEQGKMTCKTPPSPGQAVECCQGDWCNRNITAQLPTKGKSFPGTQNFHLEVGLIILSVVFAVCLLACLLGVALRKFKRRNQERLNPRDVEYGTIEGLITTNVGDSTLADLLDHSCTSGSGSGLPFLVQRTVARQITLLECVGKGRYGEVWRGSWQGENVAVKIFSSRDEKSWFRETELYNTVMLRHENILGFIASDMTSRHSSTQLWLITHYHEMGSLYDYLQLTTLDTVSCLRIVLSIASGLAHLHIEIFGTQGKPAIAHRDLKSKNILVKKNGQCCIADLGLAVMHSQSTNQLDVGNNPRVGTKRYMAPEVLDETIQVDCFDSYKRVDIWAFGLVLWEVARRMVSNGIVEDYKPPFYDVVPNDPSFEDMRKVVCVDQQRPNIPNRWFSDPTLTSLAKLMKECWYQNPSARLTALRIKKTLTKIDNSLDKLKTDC

ULK3 = ULK3 (Homo sapiens, UniProt Q6PHR2)
ULK3, sequence (Q6PHR2 whole entry): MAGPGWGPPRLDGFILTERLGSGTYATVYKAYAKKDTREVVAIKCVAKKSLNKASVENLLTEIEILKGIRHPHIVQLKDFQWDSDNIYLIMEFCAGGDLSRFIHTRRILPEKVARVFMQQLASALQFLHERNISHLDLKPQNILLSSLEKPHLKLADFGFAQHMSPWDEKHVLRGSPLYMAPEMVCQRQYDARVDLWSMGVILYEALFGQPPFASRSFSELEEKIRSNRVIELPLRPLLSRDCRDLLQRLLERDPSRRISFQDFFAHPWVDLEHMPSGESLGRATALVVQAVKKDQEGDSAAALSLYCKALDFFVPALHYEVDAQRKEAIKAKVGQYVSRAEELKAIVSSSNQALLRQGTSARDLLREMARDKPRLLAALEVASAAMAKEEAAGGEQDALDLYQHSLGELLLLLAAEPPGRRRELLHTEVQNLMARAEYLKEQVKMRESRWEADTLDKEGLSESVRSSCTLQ

FLT3(ITD,F691L) = FLT3(ITD,F691L) (Homo sapiens, UniProt P36888, F691L/ITD)
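Further: KINOMEscan kinase panel binding assay, signal normalized between DMSO as 100% and a positive control compound as 0%.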

Cc1cnc2nc1Nc1cccc(c1)COCc1cc(ccc1OCCN1CCCC1)N2 [Compound 1]
remaining binding at 0.1 µM (FGFR1): 89%
remaining binding at 0.1 µM (ANKK1): 86%
remaining binding at 0.1 µM (CDKL2): 95%
remaining binding at 0.1 µM (DAPK3): 94%
remaining binding at 0.1 µM (PIK3CA(E542K)): 89%
remaining binding at 0.1 µM (ACVR2B): 96%
remaining binding at 0.1 µM (MEK3): 76%
remaining binding at 0.1 µM (CSNK2A1): 57%
remaining binding at 0.1 µM (EPHB4): 100%
remaining binding at 0.1 µM (AURKA): 38%
remaining binding at 0.1 µM (NEK6): 100%
remaining binding at 0.1 µM (INSRR): 89%
remaining binding at 0.1 µM [1]: 75%
remaining binding at 0.1 µM (MLK3): 94%
remaining binding at 0.1 µM (CSNK1E): 70%
remaining binding at 0.1 µM (BRSK1): 93%
remaining binding at 0.1 µM (FLT3(K663Q)): 36%
remaining binding at 0.1 µM (BTK): 86%
remaining binding at 0.1 µM (BRAF(V600E)): 93%
remaining binding at 0.1 µM (PAK7): 84%
remaining binding at 0.1 µM (RIOK1): 75%
remaining binding at 0.1 µM (PKN2): 100%
remaining binding at 0.1 µM (ACVR1): 92%
remaining binding at 0.1 µM (ULK3): 85%
remaining binding at 0.1 µM (FLT3(ITD,F691L)): 0%
